ChEMBL document CHEMBL3046890, “Synthesis and Herbicidal Activity of Sulfonylureas; SL-950 and Its Related Compounds” (1995)

Legend:
Type in all cases: functional
Solanum nigrum [1] = experiment: Post emergence herbicidal activity against four-leaf stage Solanum nigrum (black nightshade) assessed as efficacy of weed growth control at 750 g ai/ha under greenhouse conditions
Portulaca oleracea [2] = experiment: Post-emergence herbicidal activity against three-leaf stage Portulaca oleracea assessed as efficacy of weed growth control at 80 g ai/ha under greenhouse conditions
Sida spinosa [3] = experiment: Post-emergence herbicidal activity against two-leaf stage Sida spinosa assessed as efficacy of weed growth control at 40 g ai/ha under greenhouse conditions
Chenopodium album [4] = experiment: Post-emergence herbicidal activity against two-leaf stage Chenopodium album assessed as efficacy of weed growth control at 750 g ai/ha under greenhouse conditions
Stellaria media [5] = experiment: Post-emergence herbicidal activity against eight-leaf stage Stellaria media assessed as efficacy of weed growth control at 60 g ai/ha under greenhouse conditions
Abutilon theophrasti [6] = experiment: Post-emergence herbicidal activity against one-leaf stage Abutilon theophrasti (velvetleaf) assessed as efficacy of weed growth control at 750 g ai/ha under greenhouse conditions
Cynodon dactylon [7] = experiment: Post-emergence herbicidal activity against 15 cm leaf stage Cynodon dactylon assessed as efficacy of weed growth control at 750 g ai/ha under greenhouse conditions
Stellaria media [8] = experiment: Post-emergence herbicidal activity against eight-leaf stage Stellaria media assessed as efficacy of weed growth control at 750 g ai/ha under greenhouse conditions
Cynodon dactylon [9] = experiment: Post-emergence herbicidal activity against 15 cm leaf stage Cynodon dactylon assessed as efficacy of weed growth control at 60 g ai/ha under greenhouse conditions
Solanum nigrum [10] = experiment: Post emergence herbicidal activity against four-leaf stage Solanum nigrum (black nightshade) assessed as efficacy of weed growth control at 40 g ai/ha under greenhouse conditions
Cyperus rotundus [11] = experiment: Post-emergence herbicidal activity against four to five-leaf stage Cyperus rotundus assessed as efficacy of weed growth control at 80 g ai/ha under greenhouse conditions
Xanthium strumarium = experiment: Post emergence herbicidal activity against Xanthium strumarium (cocklebur) assessed as inhibition of weed growth at 125 g ai/ha measured 22 to 37 days after compound application under greenhouse conditions; settings: read-out: GI
Avena fatua [12] = experiment: Post emergence herbicidal activity against three-leaf stage Avena fatua assessed as efficacy of weed growth control at 40 g ai/ha under greenhouse conditions
Sorghum halepense [13] = experiment: Post emergence herbicidal activity against four to five-leaf stage Sorghum halepense (Johnson grass) assessed as efficacy of weed growth control at 40 g ai/ha under greenhouse conditions
Digitaria sanguinalis [14] = experiment: Post-emergence herbicidal activity against two-leaf stage Digitaria sanguinalis (hairy crabgrass) assessed as efficacy of weed growth control at 750 g ai/ha under greenhouse conditions
Abutilon theophrasti [15] = experiment: Post-emergence herbicidal activity against one-leaf stage Abutilon theophrasti (velvetleaf) assessed as efficacy of weed growth control at 80 g ai/ha under greenhouse conditions
Cyperus rotundus [16] = experiment: Post-emergence herbicidal activity against four to five-leaf stage Cyperus rotundus assessed as efficacy of weed growth control at 40 g ai/ha under greenhouse conditions
Sida spinosa [17] = experiment: Post-emergence herbicidal activity against two-leaf stage Sida spinosa assessed as efficacy of weed growth control at 80 g ai/ha under greenhouse conditions
Portulaca oleracea [18] = experiment: Post-emergence herbicidal activity against three-leaf stage Portulaca oleracea assessed as efficacy of weed growth control at 60 g ai/ha under greenhouse conditions
Eleusine indica [19] = experiment: Post emergence herbicidal activity against three-leaf stage Eleusine indica assessed as efficacy of weed growth control at 750 g ai/ha under greenhouse conditions
Persicaria longiseta = experiment: Post-emergence herbicidal activity against Persicaria longiseta assessed as inhibition of weed growth at 125 g ai/ha measured 22 to 37 days after compound application under greenhouse conditions; settings: read-out: GI
Capsella bursa-pastoris [20] = experiment: Post-emergence herbicidal activity against four-leaf stage Capsella bursa-pastoris assessed as efficacy of weed growth control at 80 g ai/ha under greenhouse conditions
Persicaria lapathifolia [21] = experiment: Post-emergence herbicidal activity against three-leaf stage Persicaria lapathifolia assessed as efficacy of weed growth control at 750 g ai/ha under greenhouse conditions
Avena fatua [22] = experiment: Post-emergence herbicidal activity against three-leaf stage Avena fatua assessed as efficacy of weed growth control at 80 g ai/ha under greenhouse conditions
Capsella bursa-pastoris [23] = experiment: Post-emergence herbicidal activity against four-leafstage Capsella bursa-pastoris assessed as efficacy of weed growth control at 60 g ai/ha under greenhouse conditions
Digitaria sanguinalis [24] = experiment: Post-emergence herbicidal activity against two-leaf stage Digitaria sanguinalis (hairy crabgrass) assessed as efficacy of weed growth control at 60 g ai/ha under greenhouse conditions
Portulaca oleracea [25] = experiment: Post-emergence herbicidal activity against three-leaf stage Portulaca oleracea assessed as efficacy of weed growth control at 750 g ai/ha under greenhouse conditions
Commelina communis [26] = experiment: Post emergence herbicidal activity against two-leaf stage Commelina communis (Asiatic dayflower) assessed as efficacy of weed growth control at 750 g ai/ha under greenhouse conditions
Galinsoga quadriradiata [27] = experiment: Post-emergence herbicidal activity against four-leafstage of Galinsoga quadriradiata assessed as efficacy of weed growth control at 60 g ai/ha under greenhouse conditions
Galinsoga quadriradiata [28] = experiment: Post-emergence herbicidal activity against four-leafstage of Galinsoga quadriradiata assessed as efficacy of weed growth control at 40 g ai/ha under greenhouse conditions
Amaranthus viridis = experiment: Post-emergence herbicidal activity against three-leaf stage Amaranthus viridis assessed as efficacy of weed growth control at 80 g ai/ha under greenhouse conditions
Echinochloa crus-galli = experiment: Post emergence herbicidal activity against three-leaf stage Echinochloa crus-galli (barnyard grass) assessed as efficacy of weed growth control at 40 g ai/ha under greenhouse conditions
Galinsoga quadriradiata [29] = experiment: Post-emergence herbicidal activity against four-leafstage of Galinsoga quadriradiata assessed as efficacy of weed growth control at 750 g ai/ha under greenhouse conditions
Sorghum halepense [30] = experiment: Post emergence herbicidal activity against four to five-leaf stage Sorghum halepense (Johnson grass) assessed as efficacy of weed growth control at 750 g ai/ha under greenhouse conditions
Eleusine indica [31] = experiment: Post emergence herbicidal activity against three-leaf stage Eleusine indica assessed as efficacy of weed growth control at 40 g ai/ha under greenhouse conditions
Eleusine indica [32] = experiment: Post emergence herbicidal activity against three-leaf stage Eleusine indica assessed as efficacy of weed growth control at 60 g ai/ha under greenhouse conditions
Digitaria sanguinalis [33] = experiment: Post-emergence herbicidal activity against two-leaf stage Digitaria sanguinalis (hairy crabgrass) assessed as efficacy of weed growth control at 80 g ai/ha under greenhouse conditions
Chenopodium album [34] = experiment: Post-emergence herbicidal activity against two-leaf stage Chenopodium album assessed as efficacy of weed growth control at 80 g ai/ha under greenhouse conditions
Persicaria lapathifolia [35] = experiment: Post-emergence herbicidal activity against three-leaf stage Persicaria lapathifolia assessed as efficacy of weed growth control at 60 g ai/ha under greenhouse conditions
Stellaria media [36] = experiment: Post-emergence herbicidal activity against eight-leaf stage Stellaria media assessed as efficacy of weed growth control at 80 g ai/ha under greenhouse conditions
Commelina communis [37] = experiment: Post emergence herbicidal activity against two-leaf stage Commelina communis (Asiatic dayflower) assessed as efficacy of weed growth control at 60 g ai/ha under greenhouse conditions

COc1cc(OC)nc(NC(=O)NS(=O)(=O)c2ncccc2C(=O)N(C)C)n1 [NICOSULFURON]
Efficacy (Solanum nigrum [1]): 95% | Efficacy (Portulaca oleracea [2]): 95% | Efficacy (Sida spinosa [3]): 50% | Efficacy (Chenopodium album [4]): 95% | Efficacy (Stellaria media [5]): 95% | Efficacy (Abutilon theophrasti [6]): 95% | Efficacy (Cynodon dactylon [7]): <50% | Efficacy (Stellaria media [8]): 95% | Efficacy (Cynodon dactylon [9]): <50% | Efficacy (Solanum nigrum [10]): 50% | Efficacy (Cyperus rotundus [11]): 70% | inhibition of growth at 125 g/ha (Xanthium strumarium): 100% | Efficacy (Avena fatua [12]): 95% | Efficacy (Sorghum halepense [13]): 70% | Efficacy (Digitaria sanguinalis [14]): <50% | Efficacy (Abutilon theophrasti [15]): 70% | Efficacy (Cyperus rotundus [16]): <50% | Efficacy (Sida spinosa [17]): 70% | Efficacy (Portulaca oleracea [18]): 95% | Efficacy (Eleusine indica [19]): <50% | inhibition of growth at 125 g/ha (Persicaria longiseta): 100% | Efficacy (Capsella bursa-pastoris [20]): 95% | Efficacy (Persicaria lapathifolia [21]): 95% | Efficacy (Avena fatua [22]): 95% | Efficacy (Capsella bursa-pastoris [23]): 95% | Efficacy (Digitaria sanguinalis [24]): 95% | Efficacy (Portulaca oleracea [25]): 95% | Efficacy (Commelina communis [26]): 95% | Efficacy (Galinsoga quadriradiata [27]): 95% | Efficacy (Galinsoga quadriradiata [28]): 70% | Efficacy (Amaranthus viridis): 95% | Efficacy (Echinochloa crus-galli): 95% | Efficacy (Galinsoga quadriradiata [29]): 95% | Efficacy (Sorghum halepense [30]): <50% | Efficacy (Eleusine indica [31]): 95% | Efficacy (Eleusine indica [32]): 95% | Efficacy (Digitaria sanguinalis [33]): 95% | Efficacy (Chenopodium album [34]): 95% | Efficacy (Persicaria lapathifolia [35]): 95% | Efficacy (Stellaria media [36]): 95% | Efficacy (Commelina communis [37]): 95%
